Data set [1] is described as follows: Hydrophilicity of SCL by dynamic contact angle measurement (etafilcon A). Type of data set: physicochemical. The method, then:
(§1) SCL having etafilcon A, senofilcon A or balafilcon A as a material was taken out from a blister pack. Moisture on SCL to be measured was wiped off twice with a paper waste cloth, and dien the contact angle was measured using a dynamic contact angle measuring apparatus (automatic contact angle meter DSA100 S manufactured by Krass Company). SCL was set on a sample stage of the dynamic contact angle measuring apparatus in such a manner that die concave surface of the SCL faced upward, and 2 μL of PBS was dropped After dropping, droplets were photographed with a camera after about 10 seconds, and the contact angle between the SCL surface and the droplet was calculated by analysis software.
Next, each SCL was immersed in a PBS solution containing 50 ppm of the hydrolyzed hyaluronic acid derivative. As a control test, each SCL was immersed in PBS. The SCLs were immersed in the respective solutions overnight, and then subjected to cycle treatment under the condition of immersion of the SCL in PBS for 8 hours in conformity to actual wear. The cycle treatment was repeated, and fir SCL 1 day after immersion and 13 days after immersion, the contact angle was calculated in die same manner as described above.
(§2) Further, each SCL was immersed in a PBS solution containing 50 ppm of Na hyaluronate instead of die hydrolyzed hyaluronic add derivative, and die contact angle was calculated in die same manner as in the case of the hydrolyzed hyaluronic acid derivative.

For a further data set, the system named is both eyes of 15 subjects. Description: Suppression of corneal staining: SPK (superficial punctate keratitis) score in subjects. Type of data set: in vivo. Particulars: 50 ppm in solution A; 15 subjects (30 eyes); conclusion from the SPK score.
Data set [2] is described as follows: Hydrophilicity of SCL by dynamic contact angle measurement (senofilcon A). Type of data set: physicochemical. Particulars: FIG. 9. As to the method:
as §1
(§3) Next, each SCL was immersed in a PBS solution containing 50 ppm of the hydrolyzed hyaluronic acid derivative. As a control test, each SCL was immersed in PBS. […] The cycle treatment was repeated, and fir SCL 1 day after immersion and 13 days after immersion, the contact angle was calculated in die same manner as described above.
as §2

Data set [3] can be described thus: Hydrophilicity of SCL by dynamic contact angle measurement (balafilcon A). Type of data set: physicochemical. Particulars: FIG. 7. As to the method:
as §1, §3, §2

Where [4] appears, read: PBS containing 50 ppm, risk ratio of less than 5%.

Data on one substance can be found in US10525159B2, “Liquid preparation for contact lenses comprising hydrolyzed hyaluronic acid derivative and cationic bactericide” (OPHTECS CORPORATION, priority 2016, dated 2020).

For the substance “hydrolyzed alkyl (C12-13) glyceryl hyaluronate [hydrolyzed hyaluronic acid derivative]”, the “contact angle as compared to SCL immersed in PBS, or PBS containing 50 ppm of Na hyaluronate” value in data set [1] (etafilcon A SCL, PBS containing 50 ppm, Mann-Whitney U test, FIG. 5) is listed as “significantly smaller”; in data set [2] (Mann-Whitney U test), “significantly smaller”; in data set [3] (Mann-Whitney U test), “significantly smaller”. Moreover, the “contact angle of SCL immersed for 13 days compared with 1 day” value in data set [1] (etafilcon A SCL, PBS containing 50 ppm, risk ratio of less than 5%, FIG. 5) is given as “significantly smaller”; in data set [2] (setting [4]) it was “significantly smaller”; in data set [3] (setting [4]) it was “significantly smaller”. Besides, in data set [1] (summary for all of the three kinds of SCL (etafilcon A, balafilcon A, senofilcon A)), the “contact angle as compared to Na hyaluronate” value is given as “smaller contact angle”. In addition, in the data set with both eyes of 15 subjects, the “effect on occurrence of corneal staining” value is reported as “effect of suppressing occurrence of corneal staining”.
